From patent US20140135281A1, “METHODS FOR C[…] MITES” (SYNGENTA PARTICIPATIONS AG, priority 2011, published 2014)

Tested on: Varroa destructor
Test: Contact test of Varroa mite adults on Potter-tower-treated Petri dishes, mortality
Type: in vivo
Conditions: concentration of formulation (WP75) 67 microgramme; in 2 days; adult mites, 4 dishes of 5, spray deposit contact
Source text: Varroa mites came from bee colonies provided by a beekeeper. The mite population is kept in a dedicated apiary. For screening needs adults are collected on the same day as the beginning of experiment, either in beehive cells containing brood of worker bees or drones, or directly on bees emerging during collection.
Bee nymphs needed to feed adults of Varroa mites during experiments are choosen within the frames from which Varroa is also collected. They are collected at the stage of nymph with white or pink coloured eyes according methology described by Rembold et Kremer (Characterization of postembryonic developmental stages of the female castes of the honey bee, Apis mellifera L.. Apidologie 11: 29-38).
3 cm diameter Petri dishes were used as confinement material of Varroa mites during experiments. Covers with wire mesh were put on the top of each Petri dish in order to avoid the mites to run away but also to keep favorable humidity for the bee nymph.
Applications were done with a Potter tower (described in “An improved apparatus for applying direct sprays and surface films with data on the electrostatic charge on atomize spray fluids.” Annal of Applied Biology, 39 : 1-28.). The active substance was apllied to achieve uniform distribution on the Petri dish (1.5 mg±0.2 mg/cm^2). A check with distilled water was also tested. […]

SMILES: Nc1nc(N)nc(NC2CC2)n1 [cyromazine]
- % mortality of Varroa: 80% in 2 days
